As usually defined, the EC50 is the concentration that produces a half-maximal response. A low value points to greater potency.

The structures appear in SMILES notation. *1 amine or outer side, *2 acyl side, *3 side chain or, on linkers, in order; H or OH if unused. Where a SMILES comes first, the peptide text is derived from it. [ ]: non-standard residue; d: D form. ξ: configuration not given here. Phe(3,4-Cl2) = N[C@@H](Cc1ccc(Cl)c(Cl)c1)C(=O)O; X1 = COc1c(I)cc(C[C@H](N[*:1])C(=O)[*:2])cc1I; Phe(4-CH2NH2) = NCc1ccc(C[C@H](N)C(=O)O)cc1; ξTyr(3,5-I2) = NC(Cc1cc(I)c(O)c(I)c1)C(=O)O; Tyr(3-I) = N[C@@H](Cc1ccc(O)c(I)c1)C(=O)O; Phe(4-NH2) = Nc1ccc(C[C@H](N)C(=O)O)cc1; Phe(4-F) = N[C@@H](Cc1ccc(F)cc1)C(=O)O; NMeR = CN[C@@H](CCCNC(=N)N)C(=O)O; hArg = N=C(N)NCCCC[C@H](N)C(=O)O; hPhe = N[C@@H](CCc1ccccc1)C(=O)O; Cha = N[C@@H](CC1CCCCC1)C(=O)O; NMeL = CN[C@@H](CC(C)C)C(=O)O; NMeA = CN[C@@H](C)C(=O)O Some results are limits rather than exact numbers.

The first test in a line: Evaluated for the activity of Radio-ligand Peptides upon the activation of human thrombin receptor measured by platelet aggregation.
Regarding `C[C@H](N)C(=O)N[C@@H](Cc1ccc(F)cc1)C(=O)N[C@@H](CCCNC(=N)N)C(=O)N[C@@H](CC1CCCCC1)C(=O)N[C@@H](CCCCNC(=N)N)C(=O)NC(Cc1cc(I)c(O)c(I)c1)C(N)=O` (stereo partly drawn) [(S)-2-((S)-2-{(S)-2-[(S)-2-((S)-2-Amino-propionylamino)-3-(4-fluoro-phenyl)-propionylamino]-5-guanidino-pentanoylamino}-3-cyclohexyl-propionylamino)-6-guanidino-hexanoic acid [1-carbamoyl-2-(4-hydroxy-3,5-diiodo-phenyl)-ethyl]-amide] (H-A[Phe(4-F)]R[Cha][hArg][ξTyr(3,5-I2)]-NH2), the half-maximal effective concentration (EC50) came out at 0.15 µM.
As for `C[C@H](N)C(=O)N[C@@H](Cc1ccc(F)cc1)C(=O)N[C@@H](CCCN=C(N)N)C(=O)N[C@@H](CC1CCCCC1)C(=O)N[C@@H](CCCCN=C(N)N)C(=O)N[C@@H](Cc1ccc(O)c(I)c1)C(N)=O` [(S)-2-((S)-2-{(S)-2-[(S)-2-((S)-2-Amino-propionylamino)-3-(4-fluoro-phenyl)-propionylamino]-5-guanidino-pentanoylamino}-3-cyclohexyl-propionylamino)-6-guanidino-hexanoic acid [1-carbamoyl-2-(4-hydroxy-3-iodo-phenyl)-ethyl]-amide] (H-A[Phe(4-F)]R[Cha][hArg][Tyr(3-I)]-NH2), it took 0.03 µM to reach a half-maximal effect (EC50).
Still for that read-out and setting: in the case of `CC(C)C[C@H](NC(=O)[C@H](Cc1ccc(Cl)c(Cl)c1)NC(=O)[C@H](C)N)C(=O)N[C@@H](CC1CCCCC1)C(=O)N[C@@H](CCCNC(=N)N)C(N)=O` [(S)-2-[(S)-2-((S)-2-Amino-propionylamino)-3-(3,4-dichloro-phenyl)-propionylamino]-4-methyl-pentanoic acid [(S)-1-((S)-1-carbamoyl-4-guanidino-butylcarbamoyl)-2-cyclohexyl-ethyl]-amide] (H-A[Phe(3,4-Cl2)]L[Cha]R-NH2) it was 0.3 µM.
On the same count and under the same terms, with `COc1c(I)cc(C[C@H](NC(=O)[C@H](Cc2ccc(Cl)c(Cl)c2)NC(=O)[C@H](C)N)C(=O)N[C@@H](CC2CCCCC2)C(=O)N[C@@H](CCCNC(=N)N)C(N)=O)cc1I` [(S)-2-{(S)-2-[(S)-2-[(S)-2-((S)-2-Amino-propionylamino)-3-(3,4-dichloro-phenyl)-propionylamino]-3-(3,5-diiodo-4-methoxy-phenyl)-propionylamino]-3-cyclohexyl-propionylamino}-5-guanidino-pentanoic acid amide] (H-A[Phe(3,4-Cl2)][X1][Cha]R-NH2) the figure was 1.5 µM.

The next test in a line: Evaluated for the activation of human thrombin receptor measured by platelet aggregation.
As for `CC(C)C[C@H](NC(=O)[C@H](Cc1ccc(Cl)c(Cl)c1)NC(=O)[C@H](C)N)C(=O)N[C@@H](CC1CCCCC1)C(=O)N[C@@H](CCCNC(=N)N)C(N)=O` [(S)-2-[(S)-2-((S)-2-Amino-propionylamino)-3-(3,4-dichloro-phenyl)-propionylamino]-4-methyl-pentanoic acid [(S)-1-((S)-1-carbamoyl-4-guanidino-butylcarbamoyl)-2-cyclohexyl-ethyl]-amide] (H-A[Phe(3,4-Cl2)]L[Cha]R-NH2), the concentration for a half-maximal effect (EC50) amounted to 0.27 µM.
Same read-out and setting: with `CC(C)C[C@H](NC(=O)[C@H](Cc1ccccc1)NC(=O)[C@H](C)N)C(=O)N(C)[C@@H](CC(C)C)C(=O)N[C@@H](CCCNC(=N)N)C(N)=O` [(S)-2-[(S)-2-((S)-2-Amino-propionylamino)-3-phenyl-propionylamino]-4-methyl-pentanoic acid [(S)-1-((S)-1-carbamoyl-4-guanidino-butylcarbamoyl)-3-methyl-butyl]-methyl-amide] (H-AFL[NMeL]R-NH2) the figure was 260 µM; with `CC(C)C[C@H](NC(=O)[C@H](CC(C)C)NC(=O)[C@H](CCc1ccccc1)NC(=O)[C@H](C)N)C(=O)N[C@@H](CCCNC(=N)N)C(N)=O` [(S)-2-[(S)-2-((S)-2-Amino-propionylamino)-4-phenyl-butyrylamino]-4-methyl-pentanoic acid [(S)-1-((S)-1-carbamoyl-4-guanidino-butylcarbamoyl)-3-methyl-butyl]-amide] (H-A[hPhe]LLR-NH2), > 800 µM.
Compound `CC(C)C[C@H](NC(=O)[C@H](CC(C)C)NC(=O)[C@H](Cc1ccccc1)NC(=O)[C@@H](N)CO)C(=O)N[C@@H](CCCNC(=N)N)C(=O)N[C@@H](CC(N)=O)C(N)=O` [(S)-2-[(S)-2-((S)-2-{(S)-2-[(S)-2-((S)-2-Amino-3-hydroxy-propionylamino)-3-phenyl-propionylamino]-4-methyl-pentanoylamino}-4-methyl-pentanoylamino)-5-guanidino-pentanoylamino]-succinamide] yielded an EC50 of 0.2 µM.
As to `CC(C)C[C@H](NC(=O)[C@H](CC(C)C)NC(=O)[C@H](Cc1ccc(N)cc1)NC(=O)[C@H](C)N)C(=O)N[C@@H](CCCNC(=N)N)C(N)=O` [(S)-2-[(S)-3-(4-Amino-phenyl)-2-((S)-2-amino-propionylamino)-propionylamino]-4-methyl-pentanoic acid [(S)-1-((S)-1-carbamoyl-4-guanidino-butylcarbamoyl)-3-methyl-butyl]-amide] (H-A[Phe(4-NH2)]LLR-NH2), the EC50 turned out to be 235 µM.
Still for that read-out and setting: in the case of `CC(C)C[C@H](NC(=O)[C@H](CC(C)C)NC(=O)[C@H](Cc1ccc(CN)cc1)NC(=O)[C@H](C)N)C(=O)N[C@@H](CCCNC(=N)N)C(N)=O` [(S)-2-[(S)-3-(4-Aminomethyl-phenyl)-2-((S)-2-amino-propionylamino)-propionylamino]-4-methyl-pentanoic acid [(S)-1-((S)-1-carbamoyl-4-guanidino-butylcarbamoyl)-3-methyl-butyl]-amide] (H-A[Phe(4-CH2NH2)]LLR-NH2) it was 800 µM; in that of `CC(C)C[C@H](NC(=O)[C@H](CC(C)C)NC(=O)[C@H](Cc1ccccc1)N(C)C(=O)[C@@H](N)CO)C(=O)N[C@@H](CCCNC(=N)N)C(N)=O` [(S)-2-{(S)-2-[((S)-2-Amino-3-hydroxy-propionyl)-methyl-amino]-3-phenyl-propionylamino}-4-methyl-pentanoic acid [(S)-1-((S)-1-carbamoyl-4-guanidino-butylcarbamoyl)-3-methyl-butyl]-amide], > 800 µM; in that of `CC(C)C[C@H](NC(=O)[C@H](CC(C)C)NC(=O)[C@H](Cc1ccccc1)NC(=O)[C@@H](N)CO)C(N)=O` [(S)-2-{(S)-2-[(S)-2-((S)-2-Amino-3-hydroxy-propionylamino)-3-phenyl-propionylamino]-4-methyl-pentanoylamino}-4-methyl-pentanoic acid amide] (H-SFLL-NH2), 185 µM.
Still for that read-out and setting: in the case of `CC(C)C[C@H](NC(=O)[C@H](C)NC(=O)[C@H](Cc1ccccc1)NC(=O)[C@@H](N)CO)C(=O)N[C@@H](CCCNC(=N)N)C(N)=O` [(S)-2-{(S)-2-[(S)-2-((S)-2-Amino-3-hydroxy-propionylamino)-3-phenyl-propionylamino]-propionylamino}-4-methyl-pentanoic acid ((S)-1-carbamoyl-4-guanidino-butyl)-amide] (H-SFALR-NH2) it was 1.3 µM; in that of `CC(C)C[C@H](NC(=O)[C@H](CCCNC(=N)N)NC(=O)[C@H](Cc1ccc(F)cc1)NC(=O)[C@H](C)N)C(=O)N[C@@H](CCCNC(=N)N)C(N)=O` [(S)-2-{(S)-2-[(S)-2-((S)-2-Amino-propionylamino)-3-(4-fluoro-phenyl)-propionylamino]-5-guanidino-pentanoylamino}-4-methyl-pentanoic acid ((S)-1-carbamoyl-4-guanidino-butyl)-amide] (H-A[Phe(4-F)]RLR-NH2), 0.13 µM.
Same read-out and setting: in the case of `CC(C)C[C@H](NC(=O)[C@H](Cc1ccccc1)NC(=O)[C@H](C)N)C(=O)N[C@@H](CC(C)C)C(=O)N(C)[C@@H](CCCNC(=N)N)C(N)=O` [(S)-2-{(S)-2-[(S)-2-((S)-2-Amino-propionylamino)-3-phenyl-propionylamino]-4-methyl-pentanoylamino}-4-methyl-pentanoic acid ((S)-1-carbamoyl-4-guanidino-butyl)-methyl-amide] (H-AFLL[NMeR]-NH2) it was 800 µM; in that of `CC(C)C[C@H](NC(=O)[C@H](CC(C)C)NC(=O)[C@H](Cc1ccccc1)NC(=O)[C@@H](N)Cc1cnc[nH]1)C(=O)N[C@@H](CCCNC(=N)N)C(N)=O` [(S)-2-{(S)-2-[(S)-2-Amino-3-(3H-imidazol-4-yl)-propionylamino]-3-phenyl-propionylamino}-4-methyl-pentanoic acid [(S)-1-((S)-1-carbamoyl-4-guanidino-butylcarbamoyl)-3-methyl-butyl]-amide] (H-HFLLR-NH2), 31 µM.
As for `CC(C)C[C@H](NC(=O)[C@H](CC(C)C)NC(=O)[C@H](Cc1ccccc1)NC(=O)[C@@H](N)Cc1ccc(O)cc1)C(=O)N[C@@H](CCCNC(=N)N)C(N)=O` [(S)-2-{(S)-2-[(S)-2-Amino-3-(4-hydroxy-phenyl)-propionylamino]-3-phenyl-propionylamino}-4-methyl-pentanoic acid [(S)-1-((S)-1-carbamoyl-4-guanidino-butylcarbamoyl)-3-methyl-butyl]-amide] (H-YFLLR-NH2), the midpoint of the response, the EC50, lay at 400 µM.
Still for that read-out and setting: in the case of `COc1c(I)cc(C[C@H](NC(=O)[C@H](Cc2ccc(Cl)c(Cl)c2)NC(=O)[C@H](C)N)C(=O)N[C@@H](CC2CCCCC2)C(=O)N[C@@H](CCCNC(=N)N)C(N)=O)cc1I` [(S)-2-{(S)-2-[(S)-2-[(S)-2-((S)-2-Amino-propionylamino)-3-(3,4-dichloro-phenyl)-propionylamino]-3-(3,5-diiodo-4-methoxy-phenyl)-propionylamino]-3-cyclohexyl-propionylamino}-5-guanidino-pentanoic acid amide] (H-A[Phe(3,4-Cl2)][X1][Cha]R-NH2) it was 0.01 µM; in that of `CC(C)C[C@H](NC(=O)[C@H](CC(C)C)N(C)C(=O)[C@H](Cc1ccccc1)NC(=O)[C@@H](N)CO)C(=O)N[C@@H](CCCNC(=N)N)C(N)=O` [(S)-2-{[(S)-2-((S)-2-Amino-3-hydroxy-propionylamino)-3-phenyl-propionyl]-methyl-amino}-4-methyl-pentanoic acid [(S)-1-((S)-1-carbamoyl-4-guanidino-butylcarbamoyl)-3-methyl-butyl]-amide], 350 µM.
Same read-out and setting: in the case of `CC(C)C[C@H](NC(=O)[C@H](CC(C)C)NC(=O)[C@H](Cc1ccccc1)NC(=O)[C@@H](N)CC(=O)O)C(=O)N[C@@H](CCCNC(=N)N)C(N)=O` [(S)-3-Amino-N-((S)-1-{(S)-1-[(S)-1-((S)-1-carbamoyl-4-guanidino-butylcarbamoyl)-3-methyl-butylcarbamoyl]-3-methyl-butylcarbamoyl}-2-phenyl-ethyl)-succinamic acid] (H-DFLLR-NH2) it was > 800 µM; in that of `CN[C@@H](C)C(=O)N[C@@H](Cc1ccccc1)C(=O)N[C@@H](CC(C)C)C(=O)N[C@@H](CC(C)C)C(=O)N[C@@H](CCCNC(=N)N)C(N)=O` [(S)-4-Methyl-2-[(S)-2-((S)-2-methylamino-propionylamino)-3-phenyl-propionylamino]-pentanoic acid [(S)-1-((S)-1-carbamoyl-4-guanidino-butylcarbamoyl)-3-methyl-butyl]-amide] (H-[NMeA]FLLR-NH2), 600 µM; in that of `CC(C)C[C@H](NC(=O)[C@H](CC(C)C)NC(=O)[C@H](Cc1ccccc1)NC(=O)[C@@H](N)CO)C(=O)N[C@@H](CCCNC(=N)N)C(=O)N[C@@H](CC(N)=O)C(=O)N1CCC[C@H]1C(=O)N[C@@H](CC(N)=O)C(=O)N[C@@H](CC(=O)O)C(N)=O` [SFLLRDPQD-NH2] (H-SFLLRNPND-NH2), 3.3 µM.

(Values after BindingDB's records for doi:10.1021/jm00020a029 (Merck Research Laboratories, 1995).)
